According to patent US9936699B2, “Halogen-substituted compounds” (BAYER CROPSCIENCE AKTIENGESELLSCHAFT, priority 2014, dated 2018):

How the values were obtained:
[1] = logP determination by HPLC on reversed-phase column (C18), EEC Directive 79/831 Annex V.A8; format: physicochemical; details: reversed-phase C18, acetonitrile/water with formic acid; for chromatographic logP: reversed-phase C18 HPLC column
[2] = system: adult cat fleas (Ctenocephalides felis); assay: Ctenocephalides felis in-vitro contact test, adult cat flea; format: in vivo; details: 5 μg/cm^2 (=500 g/ha), after 48 hours
Method: Ctenocephalides felis—In-Vitro Contact Tests Adult Cat Flea
(§1) 9 mg compound is solved in 1 ml acetone and diluted with acetone to the desired concentration. 250 μl of the test solution is filled in 25 ml glass test tubes and homogeneously distributed on the inner walls by rotation and tilting on a shaking device (2 h at 30 rpm). With a compound concentration of 900 ppm, an inner surface of 44.7 cm^2 and a homogeneous distribution, a dose of 5 μg/cm^2 is achieved.
(§2) After the solvent has evaporated, each test tube is filled with 5-10 adult cat fleas (Ctenocephalides felis), closed with a perforated lid and incubated in a lying position at room temperature and relative humidity. After 48 hours efficacy is determined. The fleas are patted on the ground of the tubes and are incubated on a heating plate at 45-50° C. for at most 5 minutes. Immotile or uncoordinated moving fleas, which are not able to escape the heat by climbing upwards, are marked as dead or moribund.
An efficacy of 100% means all fleas are dead or moribund; 0% means no fleas are dead or moribund.

[3] = system: adult engorged female ticks (Boophilus microplus); assay: Boophilus microplus injection test (BOOPMI Inj); format: in vivo; details: 20 μg/animal, egg deposition after 7 days
Method: Boophilus microplus—Injectiontest (BOOPMI Inj)
(§3) Solvent: dimethyl sulfoxide
Five adult engorged female ticks (Boophilus microplus) are injected with 1 μl compound solution into the abdomen. The ticks are transferred into replica plates and incubated in a climate chamber.
(§4) After 7 days egg deposition of fertile eggs is monitored. Eggs where fertility is not visible are stored in a climate chamber till hatching after about 42 days. An efficacy of 100% means all eggs are infertile; 0% means all eggs are fertile.

[4] = system: adult house flies (Musca domestica); assay: Musca domestica test (MUSCDO); format: in vivo; details: 100 ppm, after 2 days
Description: Musca domestica—Test (MUSCDO)
as §3
10 adult house flies (Musca domestica) are transferred into a container, containing a sponge soaked with a mixture of sugar solution and compound solution of the desired concentration.

[5] = system: two-spotted spider mite (Tetranychus urticae); assay: Tetranychus urticae spray test; OP-resistant (bean plants); format: in vivo; details: after 7 days
[6] = system: larvae of the Australian sheep blowfly (Lucilia cuprina); assay: Lucilia cuprina test (LUCICU); format: in vivo; details: 100 ppm, after 2 days
Method: Lucilia cuprina—Test (LUCICU)
as §3
10 mg active compound are dissolved in 0.5 ml Dimethylsulfoxid. Serial dilutions are made to obtain the desired rates.
Approximately 20 […] instar larvae of the Australian sheep blowfly (Lucilia cuprina) are transferred into a test tube containing minced horse meat and compound solution of the desired concentration.

[7] = system: green peach aphid (Myzus persicae); assay: Myzus persicae spray test (pepper leaves); format: in vivo; details: after 6 days
[8] = system: fall armyworm larvae (Spodoptera frugiperda); assay: Spodoptera frugiperda spray test (maize leaf sections); format: in vivo; details: 100 g/ha, after 7 days
Description: Spodoptera frugiperda—Spray Test
(§5) Solvent: 78.0 parts by weight acetone
(§6) • 1.5 parts by weight dimethylformamide Emulsifier: alkylarylpolyglycol ether
Maize (Zea mays) leaf sections are sprayed with a preparation of the active ingredient of the desired concentration. Once dry, the leaf sections are infested with fall armyworm larvae (Spodoptera frugiperda).

[9] = system: two spotted spidermite (Tetranychus urticae); assay: Tetranychus urticae spray test OP-resistant (French bean leaf disks); format: in vivo; details: 100 g/ha, after 6 days
Method: Tetranychus urticae—Spray Test OP-Resistant
as §5, §6
French bean (Phaseolus vulgaris) leaf disks which are heavily infested with all stages of the two spotted spidermite (Tetranychus urticae) are sprayed with a preparation of the active ingredient of the desired concentration.
(§7) After 6 days mortality in % is determined.

[10] = system: Tick nymphs (Amblyomma hebraeum); assay: Amblyomma hebraeum test (AMBYHE); format: in vivo; details: 100 ppm, after 42 days
Method: Amblyomma hebraeum—Test (AMBYHE)
as §3
Tick nymphs (Amblyomma hebraeum) are placed in perforated plastic beakers and immersed in the aqueous compound solution for one minute. Ticks are transferred to a filter paper in a petridish and incubated in a climate chamber.

[11] = system: cattle ticks (Boophilus microplus) strane Parhurst, SP-resistant; assay: Boophilus microplus dip test (BOOPMI Dip); format: in vivo; details: 100 ppm, egg deposition after 7 days
Description: Boophilus microplus—Diptest (BOOPMI Dip)
Test animal: cattle ticks (Boophilus microplus) strane Parhurst, SP-resistant
as §3
This compound solution is pipetted into tubes. 8-10 engorged, adult, female cattle ticks (Boophilus microplus) are placed in perforated tubes. These tubes are immersed in the aqueous compound solution until the ticks are completely moistened. After the liquid has drained off, the ticks are transferred to a filter paper in a plastic tray and stored in a climate chamber.
as §4

[12] = system: adult brown dog ticks (Rhipicephalus sanguineus); assay: Rhipicephalus sanguineus in-vitro contact test with adult brown dog ticks; format: in vivo; details: 5 μg/cm^2 (=500 g/ha), after 48 hours
Method: Rhipicephalus sanguineus—In-Vitro Contact Tests with Adult Brown Doe Ticks
as §1
as §2, with “brown dog ticks (Rhipicephalus sanguineus),” for “cat fleas (Ctenocephalides felis),”, “ticks” for “fleas”, “ticks,” for “fleas,”
An efficacy of 100% means all ticks are dead or moribund; 0% means no ticks are dead or moribund.

[13] = system: green peach aphid (Myzus persicae); assay: Myzus persicae spray test (Chinese cabbage leaf disks); format: in vivo; details: 20 g/ha, after 6 days
Method: Myzus persicae—Spray Test
as §5, §6
Chinese cabbage (Brassica pekinensis) leaf disks infected with all instars of the green peach aphid (Myzus persicae), are sprayed with a preparation of the active ingredient of the desired concentration.
as §7

| SMILES | logP [1] | efficacy (infertile eggs) [3] | mortality in % [4] | further results |
| --- | --- | --- | --- | --- |
| Cn1nc(C(F)(F)C(F)(F)F)c([S+](C)[O-])c1-n1cc(-c2ccc(Cl)c(C(=O)NC3(C#N)CC3)c2)cn1 (racemic) [Example I-03] | 2.61 | 100% | 100% | efficacy (fleas dead or moribund) [2]: 100% |
| Cn1nc(C(F)(F)C(F)(F)F)c([S+](C)[O-])c1-n1cc(-c2ccc(Cl)c(C(=O)NC3(C#N)CC3)c2)cn1 (single isomer, unassigned) [Example I-08] | 2.59 |  |  |  |
| Cn1nc(C(F)(F)C(F)(F)F)c([S+](C)[O-])c1-n1cc(-c2ccc(Cl)c(C(=O)NC3(C#N)CC3)c2)cn1 (single isomer, unassigned) [Example I-21] | 2.59 |  |  |  |
| Cn1nc(C(F)(F)C(F)(F)F)c(N)c1-n1cc(Br)cn1 [Example 14, 4-bromo-2′-methyl-5′-(pentafluoroethyl)-2′H-1,3′-bipyrazol-4′-amine] |  |  |  | chromatographic logP [1]: 2.68 |
| CSc1c(C(F)(F)C(F)(F)F)nn(C)c1-n1cc(Br)cn1 [Example 15, 4-bromo-2′-methyl-4′-(methylsulfanyl)-5′-(pentafluoroethyl)-2′H-1,3′-bipyrazole] |  |  |  | chromatographic logP [1]: 3.95 |
| Cn1nc(C(F)(F)F)c([S+](C)[O-])c1-n1cc(-c2ccc(Cl)c(C(=O)NC3(C#N)CC3)c2)cn1 (centres unmarked) [Example I-01] | 2.16 |  |  | mortality in % ([5]; 20 ppm): 100% |
| Cn1nc(C(F)(F)C(F)(F)F)c(S(C)(=O)=O)c1-n1cc(-c2ccc(Cl)c(C(=O)NC3(C#N)CC3)c2)cn1 [Example I-04] | 2.77 | 100% | 100% |  |
| Cn1nc(C(F)(F)F)c(S(C)(=O)=O)c1-n1cc(-c2ccc(Cl)c(C(=O)NC3CC3)c2)cn1 [Example I-05] | 2.34 | 100% |  | mortality in % [6]: 90%; mortality in % ([7]; 20 ppm): 100% |
| Cn1nc(C(F)(F)C(F)(F)F)c([S+](C)[O-])c1-n1cc(-c2ccc(Cl)c(C(=O)NC3CC3)c2)cn1 (centres unmarked) [Example I-06] | 2.60 | 100% | 100% | efficacy (fleas dead or moribund) [2]: 100%; mortality in % [8]: 100%; mortality in % [9]: 90%; mortality in % ([7]; 20 ppm): 99%; mortality in % ([5]; 20 ppm): 90% |
| Cn1nc(C(F)(F)C(F)(F)F)c(S(C)(=O)=O)c1-n1cc(-c2ccc(Cl)c(C(=O)NC3CC3)c2)cn1 [Example I-07] | 2.78 | 100% | 100% | efficacy (fleas dead or moribund) [2]: 100%; mortality in % [10]: 100%; efficacy (infertile eggs) [11]: 100%; mortality in % [8]: 100% |
| Cc1ccc(-c2cnn(-c3c(S(C)(=O)=O)c(C(F)(F)C(F)(F)F)nn3C)c2)cc1C(=O)NC1CC1 [Example I-09] | 2.75 | 100% | 80% | efficacy (fleas dead or moribund) [2]: 100%; efficacy (infertile eggs) [11]: 80%; mortality in % [6]: 90% |
| Cc1ncc(-c2cnn(-c3c([S+](C)[O-])c(C(F)(F)C(F)(F)F)nn3C)c2)cc1C(=O)NC1(C#N)CC1 (centres unmarked) [Example I-10] | 1.99 |  |  |  |
| CCSc1c(C(F)(F)C(F)(F)F)nn(C)c1-n1cc(-c2ccc(Cl)c(C(=O)NC3CC3)c2)cn1 [Example I-11] | 3.85 | 100% | 100% | mortality in % [10]: 100%; efficacy (infertile eggs) [11]: 100%; mortality in % [8]: 100% |
| CSc1c(C(F)(F)C(F)(F)F)nn(C)c1-n1cc(-c2ccc(Cl)c(C(=O)NC3CC3)c2)cn1 [Example I-12] | 3.65 | 100% | 100% | efficacy (fleas dead or moribund) [2]: 100%; efficacy (ticks dead or moribund) [12]: 100%; efficacy (infertile eggs) [11]: 100%; mortality in % [8]: 100% |
| Cc1ncc(-c2cnn(-c3c([S+](C)[O-])c(C(F)(F)C(F)(F)F)nn3C)c2)cc1C(=O)NC1CC1 (centres unmarked) [Example I-14] | 1.85 |  |  |  |
| CCSc1c(C(F)(F)C(F)(F)F)nn(C)c1-n1cc(-c2ccc(Cl)c(C(=O)NC3(C#N)CC3)c2)cn1 [Example I-15] | 3.76 | 100% | 90% | efficacy (fleas dead or moribund) [2]: 100%; efficacy (ticks dead or moribund) [12]: 100%; mortality in % [10]: 100%; efficacy (infertile eggs) [11]: 100%; mortality in % [8]: 100% |
| CSc1c(C(F)(F)C(F)(F)F)nn(C)c1-n1cc(-c2ccc(C)c(C(=O)NC3(C#N)CC3)c2)cn1 [Example I-16] | 3.55 |  |  |  |
| CSc1c(C(F)(F)C(F)(F)F)nn(C)c1-n1cc(-c2ccc(C)c(C(=O)NC3CC3)c2)cn1 [Example I-17] | 3.64 |  |  |  |
| Cc1ccc(-c2cnn(-c3c([S+](C)[O-])c(C(F)(F)C(F)(F)F)nn3C)c2)cc1C(=O)NC1CC1 (centres unmarked) [Example I-18] | 2.57 | 100% |  | efficacy (fleas dead or moribund) [2]: 100%; efficacy (ticks dead or moribund) [12]: 80% |
| CSc1c(C(F)(F)C(F)(F)F)nn(C)c1-n1cc(-c2cnc(Cl)c(C(=O)N(C)C3CC3)c2)cn1 [Example I-19] | 3.67 |  |  |  |
| Cn1nc(C(F)(F)C(F)(F)F)c([S+](C)[O-])c1-n1cc(-c2cnc(Cl)c(C(=O)NC3(C#N)CC3)c2)cn1 (centres unmarked) [Example I-20] | 2.23 | 100% | 90% | mortality in % ([7]; 4 ppm): 95% |
| CC[S+]([O-])c1c(C(F)(F)C(F)(F)F)nn(C)c1-n1cc(-c2ccc(Cl)c(C(=O)NC3CC3)c2)cn1 (centres unmarked) [Example I-22] | 2.88 |  |  |  |
| Cc1ccc(-c2cnn(-c3c(S(C)(=O)=O)c(C(F)(F)C(F)(F)F)nn3C)c2)cc1C(=O)NC1(C#N)CC1 [Example I-23] | 2.79 | 100% |  | mortality in % [13]: 100% |
| Cc1ccc(-c2cnn(-c3c([S+](C)[O-])c(C(F)(F)C(F)(F)F)nn3C)c2)cc1C(=O)NC1(C#N)CC1 (centres unmarked) [Example I-24] | 2.57 | 100% |  |  |
| CC[S+]([O-])c1c(C(F)(F)C(F)(F)F)nn(C)c1-n1cc(-c2ccc(Cl)c(C(=O)NC3(C#N)CC3)c2)cn1 (centres unmarked) [Example I-25] | 2.84 |  |  | mortality in % ([5]; 4 ppm): 95% |
